According to patent US20250154170A1, “FUSED PYRIMIDINES AS KRAS INHIBITORS” (priority 2022, published 2025):

Tests used:
K-Ras-wildtype = K-Ras-wildtype (Homo sapiens, UniProt P01116); assay: K-Ras-wildtype activation by SOS1 (wild-type KRAS activation by SOS1cat assay, HTRF); assay type: biochemical; conditions: mean, SOS1cat mediated loading of wild-type GST-KRAS-GDP with fluorescent GTP analogue, read-out: K-Ras-wildtype activation by SOS1 IC50 - [mol/l] (mean)
Protocol: (§1) Preparation of test compound dilutions. A 100-fold concentrated solution of the test compound (50 nL) in DMSO was transferred to microtiter test plates (384 or 1,536 wells, Greiner Bio-One, Germany) using either a Hummingbird liquid handler (Digilab, MA, USA) or an Echo acoustic system (Labcyte, CA, USA). Plates were sealed with adhesive foil or heat-sealed and stored at −20 C until use. Serial dilutions of test compounds were prepared in 100% DMSO using a Precision Pipetting System (BioTek, USA).
(§2) Measurement and evaluation of inhibition data, calculation of IC50 values. Homogeneous time-resolved fluorescence (HTRF) was measured with a PHERAstar reader (BMG, Germany) using the HTRF module (excitation: 337 nm; emission 1: 620 nm, emission 2: 665 nm). The ratio of the emissions at 665 and 620 nm was used as the specific signal for further evaluation. The data were normalized using the controls: DMSO=0% inhibition, inhibition control wells with inhibitor control solution=100% inhibition. Compounds were tested in duplicates at up to 11 concentrations (e.g. 20 μM, 5.7 μM, 1.6 μM, 0.47 μM, 0.13 μM, 38 nM, 11 nM, 3.1 nM, 0.89 nM, 0.25 nM and 0.073 nM). IC50 values were calculated using a four-parameter fit, with a commercial software package (Genedata Screener, Switzerland).
(§3) KRAS^G12C activation by SOS1^cat assay (“On-assay”). This assay quantifies SOS1^cat mediated loading of KRAS^G12C-GDP with a fluorescent GTP analogue. Detection of successful loading was achieved by measuring resonance energy transfer from anti-GST-terbium (FRET donor) bound to GST-KRAS^G12C to the loaded fluorescent GTP analogue (FRET acceptor). The fluorescent GTP analogue EDA-GTP-DY-647P1 [2′/3′-O-(2-aminoethyl-carbamoyl)guanosine-5′-triphosphate labelled with DY-647P1 (Dyomics GmbH, Germany)] was synthesized by Jena Bioscience (Germany) and supplied as a 1 mM aqueous solution. A KRAS^G12C working solution was prepared in assay buffer [10 mM HEPES pH 7.4 (AppliChem), 150 mM NaCl (Sigma), 5 mM MgCl2 (Sigma), 1 mM DTT (Thermo Fisher), 0.05% BSA Fraction V pH 7.0 (ICN Biomedicals), 0.0025% (v/v) Igepal (Sigma)] containing GST-KRAS^G12C (final concentration in assay 50 nM) and anti-GST-terbium (Cisbio, France) (final concentration in assay 1 nM). A SOS1^cat working solution was prepared in assay buffer containing SOS1^cat (final concentration 10 nM) and EDA-GTP-DY-647P1 (final concentration 100 nM). An inhibitor control solution was prepared in assay buffer containing EDA-GTP-DY-647P1 (final concentration 100 nM) without SOS1^cat. All steps of the assay were performed at 20° C. A volume of 3 μL of the KRAS^G12C working solution was added to all wells of the test plate using a Multidrop dispenser (Thermo LabSystems). After 15 min, 2 μL of the SOS1^ct working solution was added to all wells, except for the inhibitor control solution wells. After 30 min incubation, HTRF was measured.
(§4) G12D and Wild-type KRAS activation by SOS1cat assays. These assays quantify human SOS1^cat mediated loading of wild-type GST-KRAS^WT-GDP or GST-KRAS^G12D-GDP with a fluorescent GTP analogue. The assay was performed similarly to the KRAS^G12C activation by SOS1^cat assay with the following differences: final concentration of SOS1^cat of 60 nM and final incubation time before measurement of 10 min for KRAS^G12D assay, final concentration of SOS1^cat of 20 nM and final incubation time before measurement of 15 min for wild-type KRAS assay, respectively. GST-KRAS^G12C was replaced by GST-KRAS^WT or GST-KRAS^G12D, respectively, also at 50 nM final concentration.
Wild-type KRAS activation by SOS1^cat assay. This assay quantifies human SOS1^cat mediated loading of wild-type GST-KRAS-GDP with a fluorescent GTP analogue. The assay was performed similarly to the KRAS^G12D activation by SOS1^cat assay just by replacement of GST-KRAS^G12D by wild-type GST-KRAS while concentrations of all components and incubation times were the same.

K-Ras G12D = K-Ras G12D (Homo sapiens, UniProt P01116, G12D); assay: K-Ras G12D activation by SOS1 (KRAS G12D activation by SOS1cat assay, HTRF); assay type: biochemical; conditions: mean, SOS1cat mediated loading of GST-KRAS G12D-GDP with fluorescent GTP analogue, read-out: K-Ras G12D activation by SOS1 IC50 - [mol/l] (mean)
K-Ras G12D, sequence (P01116 1-188 isoform P01116-2 G12D): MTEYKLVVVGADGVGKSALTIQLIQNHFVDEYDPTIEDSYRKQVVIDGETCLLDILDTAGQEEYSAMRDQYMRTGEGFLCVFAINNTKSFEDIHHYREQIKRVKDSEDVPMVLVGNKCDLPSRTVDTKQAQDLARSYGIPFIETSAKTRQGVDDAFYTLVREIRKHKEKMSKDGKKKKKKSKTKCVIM
Protocol: as §1, §2, §3, §4
KRAS^G12D activation by SOS1^cat assay (“On-assay”). This assay quantifies SOS1^cat mediated loading of KRAS^G12D-GDP with a fluorescent GTP analogue. Detection of successful loading was achieved by measuring resonance energy transfer from anti-GST-terbium (FRET donor) bound to GST-KRAS^G12D to the loaded fluorescent GTP analogue (FRET acceptor).

K-Ras-wildtype, sequence (P01116 1-188 isoform P01116-2): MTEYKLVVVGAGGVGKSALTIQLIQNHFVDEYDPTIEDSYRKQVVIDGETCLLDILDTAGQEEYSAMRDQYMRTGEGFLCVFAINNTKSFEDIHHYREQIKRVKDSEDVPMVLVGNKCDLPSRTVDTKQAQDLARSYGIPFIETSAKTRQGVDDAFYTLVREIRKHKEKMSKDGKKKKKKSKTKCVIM

SMILES: Oc1cc(Oc2nc3c(N4CC5CCC(C4)N5)nc(OCC45CCCN4CCC5)nc3[nH]2)c2c(F)cccc2c1 [Example 11, 4-({6-(3,8-diazabicyclo[3.2.1]octan-3-yl)-2-[(tetrahydro-1H-pyrrolizin-7a(5H)-yl)methoxy]-9H-purin-8-yl}oxy)-5-fluoronaphthalen-2-ol]
- IC50 (K-Ras-wildtype): > 20000 nM
- IC50 (K-Ras G12D): > 20000 nM

SMILES: C#Cc1c(F)ccc2cc(O)cc(Oc3nc4c(N5C[C@H]6CC(F)[C@@H](C5)N6)nc(OC[C@@]56CCCN5C[C@H](F)C6)nc4s3)c12 (single isomer, unassigned) [Example 26, 5-Ethynyl-6-fluoro-4-[(7-[(1R*,5R*)-6-fluoro-3,8-diazabicyclo[3.2.1]octan-3-yl]-5-{[(2R,7aS)-2-fluorotetrahydro-1H-pyrrolizin-7a(5H)-yl]methoxy}[1,3]thiazolo[5,4-d]pyrimidin-2-yl)oxy]naphthalen-2-ol]
- IC50 (K-Ras-wildtype): 25.9 nM
- IC50 (K-Ras G12D): 26.3 nM

SMILES: C#Cc1c(F)ccc2cc(O)cc(Oc3nc4c(N5CC6CCC(C5)NC6)nc(OC[C@@]56CCCN5C[C@H](F)C6)nc4s3)c12 (relative stereo) [Example 16, 4-[(7-[(1R*,5R*)-3,6-diazabicyclo[3.2.2]nonan-3-yl]-5-{[(2R,7aS)-2-fluorotetrahydro-1H-pyrrolizin-7a(5H)-yl]methoxy}[1,3]thiazolo[5,4-d]pyrimidin-2-yl)oxy]-5-ethynyl-6-fluoronaphthalen-2-ol]
- IC50 (K-Ras-wildtype): 212 nM
- IC50 (K-Ras G12D): 15.2 nM

SMILES: C#Cc1c(F)ccc2cc(O)cc(Oc3nc4c(N5CC6COCC(C5)N6)nc(OC[C@@]56CCCN5C[C@H](F)C6)nc4s3)c12 [Example 19, 5-ethynyl-6-fluoro-4-{[5-{[(2R,7aS)-2-fluorotetrahydro-1H-pyrrolizin-7a(5H)-yl]methoxy}-7-(3-oxa-7,9-diazabicyclo[3.3.1]nonan-7-yl)[1,3]thiazolo[5,4-d]pyrimidin-2-yl]oxy}naphthalen-2-ol]
- IC50 (K-Ras-wildtype): 10.7 nM
- IC50 (K-Ras G12D): 14.3 nM

SMILES: Oc1cc(Oc2nc3c(N4C[C@H]5CC[C@@H](C4)N5)nc(OCC45CCCN4CCC5)nc3s2)c2c(F)cccc2c1 [Example 3, 4-({7-[(1R,5S)-3,8-diazabicyclo[3.2.1]octan-3-yl]-5-[(tetrahydro-1H-pyrrolizin-7a(5H)-yl)methoxy][1,3]thiazolo[5,4-d]pyrimidin-2-yl}oxy)-5-fluoronaphthalen-2-ol]
- IC50 (K-Ras-wildtype): 8140 nM
- IC50 (K-Ras G12D): 325 nM

SMILES: Oc1cc(Cc2nc3c(N4CC5CCC(C4)N5)nc(OCC45CCCN4CCC5)nc3s2)c2c(F)cccc2c1 [Example 14, 4-({7-(3,8-diazabicyclo[3.2.1]octan-3-yl)-5-[(tetrahydro-1H-pyrrolizin-7a(5H)-yl)methoxy][1,3]thiazolo[5,4-d]pyrimidin-2-yl}methyl)-5-fluoronaphthalen-2-ol]
- IC50 (K-Ras-wildtype): > 20000 nM
- IC50 (K-Ras G12D): 635 nM

SMILES: CN(c1nc2c(N3CC4CCC(C3)N4)nc(OC[C@@]34CCCN3C[C@H](F)C4)nc2s1)c1cc(O)cc2ccccc12 [Example 29, 4-{[7-(3,8-diazabicyclo[3.2.1]octan-3-yl)-5-{[(2R,7aS)-2-fluorotetrahydro-1H-pyrrolizin-7a(5H)-yl]methoxy}[1,3]thiazolo[5,4-d]pyrimidin-2-yl](methyl)amino}naphthalen-2-ol]
- IC50 (K-Ras-wildtype): 11900 nM
- IC50 (K-Ras G12D): 284 nM

SMILES: Oc1cc(Nc2nc3c(N4CC5CCC(C4)N5)nc(OCC45CCCN4CCC5)nc3s2)c2ccccc2c1 [Example 7, 4-({7-(3,8-diazabicyclo[3.2.1]octan-3-yl)-5-[(tetrahydro-1H-pyrrolizin-7a(5H)-yl)methoxy][1,3]thiazolo[5,4-d]pyrimidin-2-yl}amino)naphthalen-2-ol]
- IC50 (K-Ras-wildtype): ≥ 20000 nM
- IC50 (K-Ras G12D): 3360 nM

SMILES: Cn1c(Oc2cc(O)cc3cccc(F)c23)nc2c(N3CC4CCC(C3)N4)nc(OCC34CCCN3CCC4)nc21 [Example 8, 4-({6-(3,8-diazabicyclo[3.2.1]octan-3-yl)-9-methyl-2-[(tetrahydro-1H-pyrrolizin-7a(5H)-yl)methoxy]-9H-purin-8-yl}oxy)-5-fluoronaphthalen-2-ol]
- IC50 (K-Ras-wildtype): > 20000 nM
- IC50 (K-Ras G12D): > 20000 nM
